{"source": "patent US12178814B2", "about": "“Pharmaceutical composition” (ASTELLAS PHARMA INC., priority 2019, dated 2024)", "origin": "cited, not measured here", "test_system": "EML4 (Echinoderm microtubule associated protein like-4)-ALK (Anaplastic lymphoma kinase) fusion protein", "settings": "reported in WO2010/128659, WO2017/006855"}
{"smiles": "CCc1nc(C(N)=O)c(Nc2ccc(N3CCC(N4CCN(C)CC4)CC3)c(OC)c2)nc1NC1CCOCC1", "note": "[gilteritinib, 6-Ethyl-3-{3-methoxy-4-[4-(4-methylpiperazin-1-yl)piperidin-1-yl]anilino}-5-[(oxan-4-yl)amino]pyrazine-2-carboxamide]", "values": [{"measurement": "inhibitory activity of a kinase activity of EML4-ALK fusion protein", "result": "inhibitory activity"}]}
